# Assay results: ChEMBL document CHEMBL3875218, “Bifunctional conjugates with potent inhibitory activity towards cyclooxygenase and histone deacetylase” (Bioorg Med Chem, 2017)
# How the values were obtained:
# LNCaP [1] = experiment: Induction of cell cycle arrest in human LNCAP cells assessed as accumulation at S phase at 2.5 uM after 24 hrs by propidium iodide staining based FACS analysis (reference value: […]); format: functional
# LNCaP [2] = experiment: Induction of cell cycle arrest in human LNCAP cells assessed as accumulation at greater G2 phase at 2.5 uM after 24 hrs by propidium iodide staining based FACS analysis (reference value: 0.20%); format: functional
# [3] = Cytotoxicity against human HeLa cells assessed as cell growth inhibition after 72 hrs by MTT assay
# LNCaP [4] = experiment: Induction of cell cycle arrest in human LNCAP cells assessed as accumulation at G2 phase at 2.5 uM after 24 hrs by propidium iodide staining based FACS analysis (reference value: 1.08%); format: functional
# LNCaP [5] = experiment: Induction of cell cycle arrest in human LNCAP cells assessed as accumulation at lesser G1 phase at 2.5 uM after 24 hrs by propidium iodide staining based FACS analysis (reference value: 1.59%); format: functional
# [6] = Cytotoxicity against African green monkey Vero cells assessed as cell growth inhibition after 72 hrs by MTT assay; format: toxicity, cell-based; conditions: African green monkey (Chlorocebus sabaeus)
# LNCaP [7] = experiment: Induction of cell cycle arrest in human LNCAP cells assessed as accumulation at G1 phase at 2.5 uM after 24 hrs by propidium iodide staining based FACS analysis (reference value: 69.5%); format: functional
# [8] = Cytotoxicity against human LNCAP cells assessed as cell growth inhibition after 72 hrs by MTT assay; format: functional, cell-based
# Histone deacetylase 1 = Histone deacetylase 1 (Homo sapiens, UniProt Q13547); experiment: Inhibition of HDAC1 (unknown origin) after 24 hrs by SAMDI mass spectroscopic analysis
# [9] = Cytotoxicity against human A549 cells assessed as cell growth inhibition after 72 hrs by MTT assay; format: functional, cell-based; conditions: A549, 72 h
# Histone deacetylase 3 = Histone deacetylase 3 (Homo sapiens, UniProt O15379); experiment: Inhibition of HDAC3 (unknown origin) after 5 hrs by SAMDI mass spectroscopic analysis
# Histone deacetylase 8 = biological target: T1, Histone deacetylase 8 (Homo sapiens, UniProt Q9BY41); experiment: Inhibition of HDAC8 (unknown origin) after 2.5 hrs by SAMDI mass spectroscopic analysis
# T1 sequence (Q9BY41 whole entry): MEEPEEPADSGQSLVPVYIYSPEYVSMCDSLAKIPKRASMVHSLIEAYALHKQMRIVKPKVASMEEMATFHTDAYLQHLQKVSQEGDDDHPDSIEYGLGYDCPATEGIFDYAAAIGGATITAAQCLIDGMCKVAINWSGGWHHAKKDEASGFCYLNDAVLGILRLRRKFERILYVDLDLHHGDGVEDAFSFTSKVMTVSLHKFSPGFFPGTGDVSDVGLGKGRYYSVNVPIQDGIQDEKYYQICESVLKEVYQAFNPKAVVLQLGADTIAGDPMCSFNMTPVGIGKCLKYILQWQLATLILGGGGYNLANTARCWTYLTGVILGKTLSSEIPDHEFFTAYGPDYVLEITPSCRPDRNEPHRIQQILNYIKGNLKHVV
# [10] = biological target: T2, Protein deacetylase HDAC6 (Homo sapiens, UniProt Q9UBN7); experiment: Inhibition of HDAC6 (unknown origin) after 20 hrs by SAMDI mass spectroscopic analysis
# T2 sequence (Q9UBN7 whole entry): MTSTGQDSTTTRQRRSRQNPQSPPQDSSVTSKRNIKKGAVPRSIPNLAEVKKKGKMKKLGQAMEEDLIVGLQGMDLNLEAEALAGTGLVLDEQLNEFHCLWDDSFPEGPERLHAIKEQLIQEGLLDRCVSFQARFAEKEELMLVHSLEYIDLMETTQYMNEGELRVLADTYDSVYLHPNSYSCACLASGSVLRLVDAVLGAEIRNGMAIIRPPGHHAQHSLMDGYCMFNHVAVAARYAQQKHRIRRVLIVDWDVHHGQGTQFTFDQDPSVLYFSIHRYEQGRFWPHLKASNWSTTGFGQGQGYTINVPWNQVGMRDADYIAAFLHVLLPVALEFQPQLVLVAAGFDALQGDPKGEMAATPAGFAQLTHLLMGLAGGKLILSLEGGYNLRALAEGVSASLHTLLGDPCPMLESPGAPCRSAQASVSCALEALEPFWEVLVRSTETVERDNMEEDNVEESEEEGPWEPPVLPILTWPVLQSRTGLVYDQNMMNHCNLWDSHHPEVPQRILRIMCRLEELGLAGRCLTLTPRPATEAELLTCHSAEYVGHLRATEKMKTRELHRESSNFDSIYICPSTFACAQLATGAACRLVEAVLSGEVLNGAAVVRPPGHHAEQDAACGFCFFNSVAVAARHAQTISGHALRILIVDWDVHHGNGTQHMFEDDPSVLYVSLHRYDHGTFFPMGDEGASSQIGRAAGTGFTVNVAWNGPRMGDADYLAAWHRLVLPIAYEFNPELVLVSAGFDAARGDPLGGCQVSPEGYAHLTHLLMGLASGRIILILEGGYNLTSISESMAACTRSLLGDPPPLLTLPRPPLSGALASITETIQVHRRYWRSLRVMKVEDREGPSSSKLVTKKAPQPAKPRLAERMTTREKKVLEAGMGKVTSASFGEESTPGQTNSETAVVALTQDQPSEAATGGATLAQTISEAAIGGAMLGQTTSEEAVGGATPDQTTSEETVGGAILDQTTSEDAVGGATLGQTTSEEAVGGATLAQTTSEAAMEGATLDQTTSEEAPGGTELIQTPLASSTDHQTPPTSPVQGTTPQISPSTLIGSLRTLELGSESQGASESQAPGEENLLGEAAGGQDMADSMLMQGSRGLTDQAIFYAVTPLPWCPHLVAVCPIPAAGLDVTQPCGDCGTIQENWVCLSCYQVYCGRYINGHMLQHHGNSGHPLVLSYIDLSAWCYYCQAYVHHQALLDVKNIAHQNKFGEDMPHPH
# [11] = Cytotoxicity against human HCT116 cells assessed as cell growth inhibition after 72 hrs by MTT assay; format: functional, cell-based; conditions: HCT-116, 72 h
# Histone deacetylase 2 [12] = biological target: T3, Histone deacetylase 2 (Homo sapiens, UniProt Q92769); experiment: Inhibition of HDAC2 (unknown origin) after 24 hrs by SAMDI mass spectroscopic analysis
# [13] = biological target: T4, Prostaglandin G/H synthase 1 (Ovis aries) (UniProt P05979); experiment: Inhibition of sheep COX1 at 10 uM using arachidonic acid as substrate preincubated for 15 mins followed by substrate addition for 2 mins by Cayman based fluorescence assay
# T4 sequence (whole entry): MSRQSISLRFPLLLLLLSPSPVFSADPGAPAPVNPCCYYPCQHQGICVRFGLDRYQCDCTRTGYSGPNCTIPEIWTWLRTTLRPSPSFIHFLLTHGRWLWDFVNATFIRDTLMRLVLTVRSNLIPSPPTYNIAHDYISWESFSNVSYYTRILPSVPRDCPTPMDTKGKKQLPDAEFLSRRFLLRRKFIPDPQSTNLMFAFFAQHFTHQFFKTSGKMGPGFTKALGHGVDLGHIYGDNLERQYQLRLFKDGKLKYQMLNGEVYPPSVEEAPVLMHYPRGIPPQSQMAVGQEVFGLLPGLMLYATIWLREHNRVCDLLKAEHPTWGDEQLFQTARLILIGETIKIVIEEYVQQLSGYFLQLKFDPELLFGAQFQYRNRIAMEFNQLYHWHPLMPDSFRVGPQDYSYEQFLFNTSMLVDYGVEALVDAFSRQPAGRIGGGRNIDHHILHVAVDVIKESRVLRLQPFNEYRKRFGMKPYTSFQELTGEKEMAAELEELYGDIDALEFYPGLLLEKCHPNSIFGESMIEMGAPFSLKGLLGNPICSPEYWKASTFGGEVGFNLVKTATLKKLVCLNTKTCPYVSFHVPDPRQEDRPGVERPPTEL
# [14] = biological target: T5, Prostaglandin G/H synthase 2 (Homo sapiens) (UniProt P35354); experiment: Inhibition of recombinant human COX2 at 10 uM using arachidonic acid as substrate preincubated for 15 mins followed by substrate addition for 2 mins by Cayman based fluorescence assay
# T5 sequence (whole entry): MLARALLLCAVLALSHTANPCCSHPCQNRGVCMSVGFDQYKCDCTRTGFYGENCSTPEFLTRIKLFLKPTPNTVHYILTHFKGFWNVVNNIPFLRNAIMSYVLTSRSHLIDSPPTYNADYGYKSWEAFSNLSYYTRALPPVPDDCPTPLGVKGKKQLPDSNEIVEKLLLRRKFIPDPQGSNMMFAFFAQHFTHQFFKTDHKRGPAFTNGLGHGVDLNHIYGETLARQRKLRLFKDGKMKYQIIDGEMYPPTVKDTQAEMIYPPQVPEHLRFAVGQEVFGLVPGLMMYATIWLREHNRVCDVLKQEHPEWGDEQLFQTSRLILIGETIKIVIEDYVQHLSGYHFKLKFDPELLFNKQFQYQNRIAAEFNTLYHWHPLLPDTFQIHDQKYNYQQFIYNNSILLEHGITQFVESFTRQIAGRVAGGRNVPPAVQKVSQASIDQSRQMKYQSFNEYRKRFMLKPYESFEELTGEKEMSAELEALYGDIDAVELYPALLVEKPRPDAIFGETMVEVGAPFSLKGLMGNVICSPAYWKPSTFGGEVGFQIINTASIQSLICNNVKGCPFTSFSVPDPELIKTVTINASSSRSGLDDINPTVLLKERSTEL
# [15] = Cytotoxicity against human MCF7 cells assessed as cell growth inhibition after 72 hrs by MTT assay; format: functional, cell-based; conditions: MCF7, 72 h
# [16] = Cytotoxicity against human DU145 cells assessed as cell growth inhibition after 72 hrs by MTT assay; format: functional, cell-based; conditions: DU-145, 72 h
# Histone deacetylase 2 [17] = biological target: T3, Histone deacetylase 2; experiment: Inhibition of HDAC2 (unknown origin) at 10 uM after 24 hrs by SAMDI mass spectroscopic analysis
# [18] = biological target: T6, Prostaglandin G/H synthase 2 (Homo sapiens, UniProt P35354); experiment: Inhibition of recombinant human COX2 using arachidonic acid as substrate preincubated for 15 mins followed by substrate addition for 2 mins by Cayman based fluorescence assay
# T6 sequence (P35354 whole entry): T5 sequence (whole entry)
# [19] = biological target: T7, Prostaglandin G/H synthase 1 (Ovis aries, UniProt P05979); experiment: Inhibition of sheep COX1 using arachidonic acid as substrate preincubated for 15 mins followed by substrate addition for 2 mins by Cayman based fluorescence assay
# T7 sequence (P05979 whole entry): T4 sequence (whole entry)
# T3 sequence (Q92769 whole entry): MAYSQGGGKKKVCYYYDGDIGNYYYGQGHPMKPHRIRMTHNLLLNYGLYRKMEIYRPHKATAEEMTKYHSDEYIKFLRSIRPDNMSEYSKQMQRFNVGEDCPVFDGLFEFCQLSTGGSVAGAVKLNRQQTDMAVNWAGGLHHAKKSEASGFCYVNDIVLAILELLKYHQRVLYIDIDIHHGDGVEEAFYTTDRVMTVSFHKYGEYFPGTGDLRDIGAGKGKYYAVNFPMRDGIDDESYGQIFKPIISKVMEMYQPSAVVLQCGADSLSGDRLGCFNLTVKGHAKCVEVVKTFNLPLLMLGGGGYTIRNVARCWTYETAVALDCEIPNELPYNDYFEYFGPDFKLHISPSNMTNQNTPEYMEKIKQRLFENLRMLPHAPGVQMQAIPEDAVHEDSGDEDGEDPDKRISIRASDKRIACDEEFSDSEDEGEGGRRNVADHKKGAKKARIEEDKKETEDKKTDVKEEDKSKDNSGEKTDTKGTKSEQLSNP
# Sequence of Histone deacetylase 1 (Q13547 whole entry): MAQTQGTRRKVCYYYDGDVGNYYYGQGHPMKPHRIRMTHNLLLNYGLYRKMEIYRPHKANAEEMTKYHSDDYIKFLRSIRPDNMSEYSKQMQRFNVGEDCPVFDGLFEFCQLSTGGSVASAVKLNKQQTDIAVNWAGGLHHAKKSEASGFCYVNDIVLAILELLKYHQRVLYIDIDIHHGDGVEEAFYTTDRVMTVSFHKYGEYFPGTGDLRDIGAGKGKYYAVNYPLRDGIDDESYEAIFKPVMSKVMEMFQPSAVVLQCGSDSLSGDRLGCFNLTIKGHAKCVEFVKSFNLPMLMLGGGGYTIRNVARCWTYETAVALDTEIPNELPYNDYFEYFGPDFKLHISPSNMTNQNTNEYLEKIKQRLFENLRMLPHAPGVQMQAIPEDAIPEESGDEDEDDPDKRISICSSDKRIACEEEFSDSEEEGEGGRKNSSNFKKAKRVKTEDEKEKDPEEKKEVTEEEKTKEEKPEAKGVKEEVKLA
# Sequence of Histone deacetylase 3 (O15379 whole entry): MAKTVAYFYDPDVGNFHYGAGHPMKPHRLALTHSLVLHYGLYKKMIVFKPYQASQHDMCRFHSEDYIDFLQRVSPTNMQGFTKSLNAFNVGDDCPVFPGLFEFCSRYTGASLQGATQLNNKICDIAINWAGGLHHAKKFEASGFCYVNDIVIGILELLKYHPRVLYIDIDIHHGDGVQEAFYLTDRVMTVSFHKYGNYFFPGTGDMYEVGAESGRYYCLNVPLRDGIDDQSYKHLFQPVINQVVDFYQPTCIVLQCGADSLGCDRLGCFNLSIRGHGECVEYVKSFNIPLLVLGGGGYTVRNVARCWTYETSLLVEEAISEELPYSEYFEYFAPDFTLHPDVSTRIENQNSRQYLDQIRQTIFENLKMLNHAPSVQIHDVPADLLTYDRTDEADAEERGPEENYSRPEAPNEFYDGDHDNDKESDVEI
Compound,IC50 at 72 h [6] [µM],IC50 [8] [µM],IC50 (Histone deacetylase 1) [nM],IC50 [9] [µM],IC50 (Histone deacetylase 3) [nM],IC50 (Histone deacetylase 8) [nM],IC50 [10] [nM],IC50 [11] [µM],IC50 (Histone deacetylase 2 [12]) [nM],inhibition [13] [%],inhibition [14] [%],IC50 [15] [µM],further results
O=C(CCCCCCC(=O)Nc1ccccc1)NO [VORINOSTAT],1.03,–,–,–,–,–,–,–,–,–,–,–,Activity (LNCaP [1]): 18.4%; Activity (LNCaP [2]): 0.31%; IC50 [3]: 2120 nM; Activity (LNCaP [4]): 0.69%; Activity (LNCaP [5]): -4.88%; Activity (LNCaP [7]): 85.6%
Cc1ccc(-c2cc(C(=O)NCCCCCCC(=O)NO)nn2-c2ccc(S(N)(=O)=O)cc2)cc1,> 100,> 20,208,> 100,333,520,83,25,294,26.4,71.1,> 100,–
Cc1ccc(-c2cc(C(=O)NCCCCCC(=O)NO)nn2-c2ccc(S(N)(=O)=O)cc2)cc1,> 100,–,400,> 100,191,544,92,–,232,–,19.1,> 100,–
Cc1ccc(-c2cc(C(F)(F)F)nn2-c2ccc(S(=O)(=O)NCCCCCCCC(=O)NO)cc2)cc1,6.61,2.11,968,8.15,256,989,61,–,929,26.1,95.6,4.58,IC50 [16]: 10.1 µM
COc1ccc2c(c1)c(CC(=O)NCCCCCCCC(=O)NO)c(C)n2C(=O)c1ccc(Cl)cc1,34.7,6.46,1760,–,283,707,50,24.9,–,42.8,96.2,25.1,inhibition (Histone deacetylase 2 [17]): 43%; IC50 [16]: > 20 µM
COC(=O)Cc1c(C)n(Cc2ccc(-c3cn(CCCCCCCC(=O)NO)nn3)cc2)c2ccc(OC)cc12,5.73,1.53,251,–,181,394,5,1.28,209,7.08,78.2,–,IC50 [18]: 4.58 µM; IC50 [19]: 12 µM
Cc1ccc(-c2cc(C(F)(F)F)nn2-c2ccc(S(=O)(=O)NCCCCCC(=O)NO)cc2)cc1,6.83,8.88,1870,10.4,1020,226,76,8.74,2060,16.2,97.7,7.77,–
COc1ccc2c(c1)c(CC(=O)NCCCCCC(=O)NO)c(C)n2C(=O)c1ccc(Cl)cc1,–,> 20,1810,31.9,722,345,49,16.1,–,40.2,95.1,> 100,inhibition (Histone deacetylase 2 [17]): 41%
COC(=O)Cc1c(C)n(Cc2ccc(-c3cn(CCCCCC(=O)NO)nn3)cc2)c2ccc(OC)cc12,37.8,> 20,778,–,224,672,6830,9.31,1360,–,11.5,14.2,–
Cc1ccc(-c2cc(C(=O)NCCCCCCCC(=O)NO)nn2-c2ccc(S(N)(=O)=O)cc2)cc1,12.1,> 20,60,34.1,33,697,183,7.12,32,–,66.9,59.5,–
